Results: patent publication US20160152579A1, “OXAZOLIDINONE DERIVATIVES AS PPAR LIGANDS” (CONSEJO SUPERIOR DE INVESTIGACIONES CIENTÍFICAS (CSIC), priority 2013, published 2016)

Tests used:
[1] = target: T1, human PPAR-alpha receptor (Homo sapiens, UniProt Q07869); assay: Cell transfection and luciferase reporter gene assay, PPAR-alpha activation in MCF-7 cells; type: cell-based; conditions: luciferase reporter, 16 h treatment
T1 construct: expressed in transfected cells; host or cells: MCF-7 human breast cancer cells, pSG5 expression vector
Procedure: (§1) The reporter gene assay is an in vitro method used to determine and quantify the existence of physical interactions between proteins, useful for confirming in this case the interaction of the transcription factors PPAR-alpha with co-activator SRC-1, and PPAR-gamma with PPRE in MCF-7 cells.
(§2) For the in vitro experiments, with cell culture all the compounds were dissolved and diluted in dimethylsulfoxide (DMSO) (Sigma Aldrich Spain).
(§3) DNA constructs: Eukaryotic pSG5 expression vector (4100 base pairs, Stratagene Co.) was used as the cDNA expression vehicle for human PPAR-alpha receptor and PPAR-gamma receptor. This construction was used for the in vivo overexpression of the protein in mammalian cells.
(§4) Four copies of the human CPTI gene DR1-type RE (sequence […]) (Ref: Tinahones F J, Moreno-Santos I, Vendrell J, Chacon M R, Garrido-Sanchez L, Garcia-Wasntes E, and Macias-Gonzalez M. Obesity 2012, 20: 488-497) were individually fused with the thymidine kinase promoter in the pGL-2 Basic vector (5598 base pairs, Promega Co.), which lacks a eukaryotic promoter and contains a firefly (Photinus pyralis) luciferase reporter gene. This vector is widely used in the quantitative analysis of factors capable of regulating gene expression in mammalian cells. This pGL-2 Basic vector also has an ampicillin resistance region (gene for β-lactamase). […]

[2] = target: T2, human PPAR-gamma receptor (Homo sapiens, UniProt P37231); assay: Cell transfection and luciferase reporter gene assay, PPAR-gamma activation in MCF-7 cells; type: cell-based; conditions: luciferase reporter, 16 h treatment
T2 construct: expressed in transfected cells; host or cells: MCF-7 human breast cancer cells, pSG5 expression vector
T2 sequence (P37231 1-505): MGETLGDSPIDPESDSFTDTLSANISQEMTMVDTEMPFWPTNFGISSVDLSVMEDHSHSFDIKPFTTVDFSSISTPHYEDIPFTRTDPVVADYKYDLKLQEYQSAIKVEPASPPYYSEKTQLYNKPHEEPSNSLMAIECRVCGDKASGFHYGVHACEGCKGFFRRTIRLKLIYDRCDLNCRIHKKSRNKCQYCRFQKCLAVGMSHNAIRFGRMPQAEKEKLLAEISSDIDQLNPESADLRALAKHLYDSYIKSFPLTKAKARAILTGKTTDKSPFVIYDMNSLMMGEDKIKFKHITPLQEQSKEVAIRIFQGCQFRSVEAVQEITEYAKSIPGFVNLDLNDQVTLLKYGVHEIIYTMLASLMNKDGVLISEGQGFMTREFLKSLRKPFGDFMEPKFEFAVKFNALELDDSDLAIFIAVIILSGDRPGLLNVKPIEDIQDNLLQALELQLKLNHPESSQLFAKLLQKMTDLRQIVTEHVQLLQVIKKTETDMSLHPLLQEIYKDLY
Procedure: as §1, §2, §3, §4

[3] = test system: Male Wistar albino rats; assay: In vivo assay on food ingestion, acute treatment; parameters: species or system Rattus Norvegicus; conditions: for course of the effect on food ingestion over time (30-240 min) / reduction of food ingestion: rats fasted 24 h
Procedure: Male Wistar albino rats (Rattus Norvegicus) from Charles Rivers Laboratories España, S. A. (Barcelona, Spain), were used, having weights ranging between 300-350 g at the start of the experiments. The animals were caged individually, in controlled temperature (22° C.) and moisture (55%) conditions under a 12-hour light/dark cycle (light off from 8:00 AM to 8:00 PM). The rats had free access to food and water in their corresponding cages. All the training and experimental sessions were carried out after 8:00 PM hours.
All the drugs were prepared in fresh conditions in a solution consisting of 5% Tween-80 in sterile physiological serum. The different doses were prepared in different vials such that Tween-80 was added after weighing the necessary amount of compound. The compound, with its corresponding volume of surfactant, was sonicated and homogenized (with the aid of a magnetic stirrer) for 15-30 minutes. Then, the necessary volume of serum was added until completing the solution.
The compounds were administered intraperitoneally (i.p.) in an acute manner in an administration volume of 1 ml per kg of animal.
Before starting the ingestion experiments, the animals were habituated to being handled. For this purpose, 48-72 hours before each experimental session, the rats were placed in cages where the base material (sawdust) was removed, and small containers with food were placed in the cages for 4 hours. After this initial habituation phase, the animals were deprived of food for 24 hours, always having free access to water.
After said fasting period, the different treatment groups were established, and the base material was removed from the cages, weighing the animals and weighing the small containers with food (commercial laboratory feed). Additionally, the water container was weighed. 15 minutes after administering the compounds, the respective weighed food container was given to each animal, and it was again weighed at different times (30, 60, 120 and 240 minutes). In one case it was weighed 24 hours after being given.
Food consumption was represented as relative accumulated consumption (g of food per kg of animal). The water containers were also weighed at the end of the experiment.

T1 sequence (Q07869 whole entry): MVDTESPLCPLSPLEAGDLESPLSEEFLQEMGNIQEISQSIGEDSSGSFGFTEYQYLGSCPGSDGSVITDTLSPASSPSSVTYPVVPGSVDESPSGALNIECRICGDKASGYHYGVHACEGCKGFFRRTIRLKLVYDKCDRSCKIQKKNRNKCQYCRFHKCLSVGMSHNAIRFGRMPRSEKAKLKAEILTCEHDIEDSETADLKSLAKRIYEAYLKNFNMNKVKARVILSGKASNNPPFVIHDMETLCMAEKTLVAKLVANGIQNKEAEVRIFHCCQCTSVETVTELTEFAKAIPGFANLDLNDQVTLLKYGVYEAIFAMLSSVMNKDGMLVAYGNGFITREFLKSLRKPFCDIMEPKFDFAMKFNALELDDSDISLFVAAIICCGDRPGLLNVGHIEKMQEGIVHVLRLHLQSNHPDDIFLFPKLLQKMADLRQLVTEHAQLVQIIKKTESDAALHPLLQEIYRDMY
T1 sequence (P19793 whole entry partner): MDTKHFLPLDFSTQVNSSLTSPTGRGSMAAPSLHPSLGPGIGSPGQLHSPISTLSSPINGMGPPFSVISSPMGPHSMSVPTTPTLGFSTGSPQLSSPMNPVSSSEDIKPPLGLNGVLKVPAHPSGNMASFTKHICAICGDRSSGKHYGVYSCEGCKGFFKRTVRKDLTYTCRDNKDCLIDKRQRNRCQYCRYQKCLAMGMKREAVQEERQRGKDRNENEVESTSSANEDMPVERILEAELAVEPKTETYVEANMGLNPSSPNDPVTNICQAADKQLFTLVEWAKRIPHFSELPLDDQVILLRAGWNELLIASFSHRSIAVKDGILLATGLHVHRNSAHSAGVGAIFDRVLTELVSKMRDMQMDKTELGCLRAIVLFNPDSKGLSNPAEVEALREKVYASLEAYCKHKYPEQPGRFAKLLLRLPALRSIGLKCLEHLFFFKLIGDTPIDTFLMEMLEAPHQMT
T1 sequence (Q15788 whole entry partner): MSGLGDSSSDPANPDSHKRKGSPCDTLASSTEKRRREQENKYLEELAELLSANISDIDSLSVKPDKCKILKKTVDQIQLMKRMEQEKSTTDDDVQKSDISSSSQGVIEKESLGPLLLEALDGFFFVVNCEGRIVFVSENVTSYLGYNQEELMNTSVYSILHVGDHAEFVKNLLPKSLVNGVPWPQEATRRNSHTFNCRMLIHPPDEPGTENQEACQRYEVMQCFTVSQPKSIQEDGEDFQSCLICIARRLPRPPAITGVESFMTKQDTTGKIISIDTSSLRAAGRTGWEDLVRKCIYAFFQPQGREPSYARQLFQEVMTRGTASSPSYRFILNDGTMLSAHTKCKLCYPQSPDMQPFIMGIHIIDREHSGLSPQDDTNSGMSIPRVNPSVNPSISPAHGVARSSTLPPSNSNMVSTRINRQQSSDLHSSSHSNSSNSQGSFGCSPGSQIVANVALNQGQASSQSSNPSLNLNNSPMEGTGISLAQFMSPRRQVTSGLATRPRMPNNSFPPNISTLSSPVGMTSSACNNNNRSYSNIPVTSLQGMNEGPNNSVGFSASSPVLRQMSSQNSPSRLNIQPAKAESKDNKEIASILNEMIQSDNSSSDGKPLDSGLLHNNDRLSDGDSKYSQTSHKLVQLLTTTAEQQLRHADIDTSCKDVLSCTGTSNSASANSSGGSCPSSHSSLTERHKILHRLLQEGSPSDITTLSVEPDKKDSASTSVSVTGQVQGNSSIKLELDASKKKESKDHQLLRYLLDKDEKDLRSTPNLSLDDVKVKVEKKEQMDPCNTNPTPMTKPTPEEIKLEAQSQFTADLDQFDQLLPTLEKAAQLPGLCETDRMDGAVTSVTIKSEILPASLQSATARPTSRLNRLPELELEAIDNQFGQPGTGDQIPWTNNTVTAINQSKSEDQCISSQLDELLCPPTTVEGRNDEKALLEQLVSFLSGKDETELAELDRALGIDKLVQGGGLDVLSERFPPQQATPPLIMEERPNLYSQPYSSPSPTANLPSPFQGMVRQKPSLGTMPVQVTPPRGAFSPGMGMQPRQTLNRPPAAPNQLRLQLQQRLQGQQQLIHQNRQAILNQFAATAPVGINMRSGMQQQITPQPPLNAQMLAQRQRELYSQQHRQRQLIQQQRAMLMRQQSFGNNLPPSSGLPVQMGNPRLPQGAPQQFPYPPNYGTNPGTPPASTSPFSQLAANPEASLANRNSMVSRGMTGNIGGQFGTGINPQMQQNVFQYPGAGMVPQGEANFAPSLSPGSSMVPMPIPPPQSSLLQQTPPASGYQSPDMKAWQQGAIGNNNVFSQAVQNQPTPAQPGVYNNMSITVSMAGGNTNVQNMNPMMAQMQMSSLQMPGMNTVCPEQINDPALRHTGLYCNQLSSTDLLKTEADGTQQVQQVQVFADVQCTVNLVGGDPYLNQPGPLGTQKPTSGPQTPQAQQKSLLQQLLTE

Row | SMILES | EC50 [1] [nM] | EC50 [2] [nM] | course of the effect on food ingestion over time (30-240 min) ([3]; acute i.p. administration) | reduction of food ingestion ([3]; effective dose 3.0 mg/kg i.p., FIG. 1) | effect on accumulated food ingestion 24 hours after administration ([3]; 24 h after i.p. administration, FIG. 3) | dose dependence of the effect on food ingestion ([3]; acute i.p. administration, FIG. 2) | reduction of food ingestion ([3]; effective dose 1.0 mg/kg i.p., FIG. 2)
1 | CC(C)(C)c1ccc(CNC(=O)c2ccc(NC(=O)c3cccc(CN4C(=O)OC[C@H]4Cc4ccccc4)c3)cc2)cc1 [Compound 1, (R)-3-((4-benzyl-2-oxooxazolidin-3-yl)methyl)-N-(4-((4-(tert-butyl)benzyl)carbamoyl)phenyl)benzamide] | 670 ± 157 | 1290 | effect disappearing 240 minutes after the administration | about 50% |  |  | 
2 | CCCCCNC(=O)c1ccc(NC(=O)c2cccc(CN3C(=O)OC[C@H]3Cc3ccccc3)c2)cc1 [Compound 5, (R)-3-((4-benzyl-2-oxooxazolidin-3-yl)methyl)-N-(4-(pentylcarbamoyl)phenyl)benzamide] | 821 ± 139 | 1620 | effect maintained over time after 240 minutes |  | still has an effect 24 hours after administration | active in a dose-dependent manner | about 50%
